Test results: paper PMC10550954, “A high throughput screen for pharmacological inhibitors of the carbohydrate response element” (Scientific Data, 2023)

How the values were obtained:
[1] = test system: ChoRE-LUC (ChoRE driven transcription); experiment: ChoRE-LUC luciferase reporter assay in INS-1E ChoRE-LUC cells (BrightGlo, 24 h, 25 mM glucose); type: cell-based, Rat; conditions: 24 h treatment, 25 mM glucose media, 2% FBS
Procedure: For ReFRAME library screening, 10 nL of 2 mM DMSO stock concentrations of compound were prespotted into 5 µL of assay medium (RPMI with 2% FBS, 10 mM HEPES, 1 mM sodium pyruvate, 25 mM D-glucose (Sigma), and 1% penicillin/streptomcycin) in white 384-well plates (Grenier) using an Echo Acoustic Liquid Handler instrument (Labcyte) before the addition of INS-1E ChoRE-LUC cells (5000 cells in 45 µL assay medium per well). Cells were incubated for 24 h before 30 µL of BrightGlo Luciferase Assay solution (diluted 1:3 in water, Promega) was added to each well and luminescence signal values were recorded with an Envision plate reader (PerkinElmer). This protocol was used as the ReFRAME library was supplied from off-site and necessitated pre-spotting for efficient transfer of materials. For the screening of all other libraries, which was performed in-house, INS-1E ChoRE-LUC cells were plated in a white 384-well plate (5000 cells in 50 µL assay medium per well) and incubated for 24 h. 100 nL of DMSO stock concentrations of compound were transferred to each well using a Bravo instrument with a pintool head (Agilent). Cells were incubated for 24 h before 30 µL of BrightGlo Luciferase Assay solution was added to each well and luminescence signal values were recorded with an Envision plate reader.
(§1) Reporter activity and cell viability data was normalized to the DMSO control wells in each plate. Ten or twelve dose-response points and three biological replicates were used to determine dose-response curves using the four-parameter inhibitor dose-response curve fitting function in Prism software (Graphpad). All graphed data are plotted as the mean and the s.e.m denoted with error bars.
To establish a reliable assay with a suitable dynamic range for high-throughput screening, we first optimized the composition of the DNA regulatory sequences within the ChoRE-LUC reporter. […] To determine whether this combination of regulatory elements was robust enough to test general ChoRE activity, we constructed six pGL4-based luciferase reporter plasmids with different numbers and/or combinations of ChoRE and FOXO sequences from the promoter of the human TXNIP gene (Fig. 3a). The wild-type (WT) sequence represents the intact minimal promoter of the TXNIP gene (GRCh38.p14, chr1:145,996,639–145,996,759). The six plasmids were transiently transfected into INS-1E cells using cationic lipid-based transfection reagents and the induction of luciferase after 24 h in 25 mM glucose containing media was compared (Fig. 3b). In addition, we tested various glucose concentrations in the assay media to determine the concentration that results in the highest stimulation. […] The WT ChoRE-LUC construct was then used to generate an INS-1E stable cell line (INS-1E ChoRE-LUC) for screening in 384-well plate format. For high-throughput screening, the treatment time, serum percentage in media, and cell count per well were optimized further. The final assay design consisted of 5,000 INS-1E ChoRE-LUC cells per well of a 384-well plate in 25 mM glucose media supplemented with 2% FBS and a compound treatment time of 24 h.

[2] = Cytotoxicity screening (CellTiterGlo cell viability) in INS-1E ChoRE-LUC cells; type: cell-based; conditions: rat, 24 h treatment
Procedure: INS-1E ChoRE-LUC cells were plated in a white 384-well plate (5000 cells in 50 µL assay medium per well) and incubated for 24 h. 100 nL of DMSO stock concentrations of compound were transferred to each well using a Bravo instrument (Agilent) affixed with a pintool head (V&P Scientific). Cells were incubated for 24 h before 30 µL of CellTiterGlo Cell Viability Assay solution (diluted 1:6 in water, Promega) was added to each well and luminescence signal values were recorded with an Envision plate reader.
as §1

TXNIP expression = test system: TXNIP expression; parameters: method as in PMID 28502980; conditions: compared with the ChoRE-LUC IC50 of this paper; read-out: previously reported measurement (IC50); cited from earlier work
[3] = Rattus norvegicus, INS-1E, 24 h

Structure (SMILES)	IC50 [1, 3] [µM]	IC50 at 24 h [2] [µM]	IC50 [1] [µM]	IC50 (TXNIP expression) [µM]
CCOC(=O)c1[nH]c2ccccc2c1NC(=O)/C=C/c1ccc(OC)c(OC)c1 [C175-0061]	1.11	> 20		
CC[C@H](Nc1nc(NCc2cnc(C)cc2C)c2ncn(C(C)C)c2n1)[C@@H](C)O [CYC065, reference compound]	0.58	0.85		
FC(F)(F)c1ccc(CN2CCC(F)(c3noc(-c4ccncc4)n3)C2)cc1 (stereo not shown) [SC41-0173]	8.25	> 20		
Fc1cc(Br)ccc1CN1CCC(F)(c2noc(-c3ccncc3)n2)C1 (stereo not shown) [SC41-0178]	9.83	> 20		
Cc1cc(C)cc(C(=O)N2CC3(CC(CCOCc4cccc(F)c4)CO3)C2)c1 (stereo not shown) [SD60-0149]	10.6	> 20		
O=C(c1ccc(F)c(Cl)c1)N1CC2(CC(CCOCc3cccc(F)c3)CO2)C1 (stereo not shown) [SD60-0151]	9.5	> 20		
CCS(=O)(=O)Oc1ccc(CN(Cc2ccc(F)cc2)C(=O)/C=C/c2ccccc2)cc1 [V029-2992]	2.85	> 20	2.9	
CC(=O)c1ccc(OCCn2cnc3c(N)ncnc32)cc1 [W2476, reference compound]			1.33	1.7
O=C(NCc1ccco1)C(=Cc1ccc(Cl)c(Cl)c1)C(=O)NCc1ccco1 [Y070-0096]	1.37	3.98		
